In patent publication US7754896B2, “Indol-alanine derivatives as selective S1P4-agonists” (Novartis AG, priority 2004, dated 2010):

Target: T1, S1P4 (Homo sapiens, UniProt O95977)
T1 construct: expressed in transfected cells
T1 sequence (O95977 1-384): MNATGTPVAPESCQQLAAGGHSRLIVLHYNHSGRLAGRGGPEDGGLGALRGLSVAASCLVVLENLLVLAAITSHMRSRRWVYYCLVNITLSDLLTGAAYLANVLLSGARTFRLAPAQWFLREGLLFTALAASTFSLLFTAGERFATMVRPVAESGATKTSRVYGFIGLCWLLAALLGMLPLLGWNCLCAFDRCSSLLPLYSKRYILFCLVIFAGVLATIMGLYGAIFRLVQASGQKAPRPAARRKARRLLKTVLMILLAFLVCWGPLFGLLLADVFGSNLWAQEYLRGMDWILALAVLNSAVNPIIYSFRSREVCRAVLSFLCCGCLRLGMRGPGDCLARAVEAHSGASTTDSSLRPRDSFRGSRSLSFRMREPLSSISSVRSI
Experiment: EC50 for S1P4 'in this assay' (GTPγS binding or calcium mobilization, not specified)
Format: cell-based
Conditions: assay format not specified ('this assay')
Experimental: The selection of the clones to be tested in the GTPγS assay is based on the real time PCR assays. CHO clones expressing large amounts of human S1P4 are used in these experiments. Membrane proteins are prepared as described above. The basic protocol of GTPγ^35S-binding assay used is described in a recent publication (Brinkmann et al. 2002, J. Biol. Chem, 277, 21453) with the modifications described here below. To characterize the GTPγ^35S-binding to membrane proteins from CHO cells expressing S1P, WGA coated PVT beads (SPA-bead, Amersham Biosciences) are used. Because β-rays of GTPγ^35S have […] in water solution, the plates are centrifuged to minimize non-specific effects caused by the non bound GTPγ^35S. The assay is performed in 96-well Optiplates (Packard, Cat. N^o 6005190) in final volume of 225 μl/well. […] The plates are then centrifuged for 10 minutes at 2000 rpm and counted with a TopCount instrument (Packard). […]
CHO cells are plated in black Costar plate (96 or 384 well, 50,000 cells or 12,500 cells, respectively) in a MEM with FCS and cultured for 20-24 h at 37° C. in a CO2 incubator. […] After measuring the baseline for 40 sec, the agonist in HBSS is added and the fluorescence is measured at intervals of 2 sec for 3 to 5 min. […]

CCc1ccccc1-c1cccc2[nH]c(C(=O)NC[C@@H](N)C(=O)O)cc12 [Example 1, 3-(4-(2-Ethylphenyl)-2-carboxamido-indole)-D-alanine]
EC50: 432 nM
